# Publication PMC7754455 (Journal of Clinical Pharmacology, 2020)
# Assays:
# [1] = Simcyp PBPK model parameter
# [2] = Blood and plasma binding and permeability PBPK input parameters; settings: PBPK model parameter, fixed to observed value
# [3] = Clinical DDI study part 2: plasma PK of molibresib alone and with rifampicin; settings: for AUC0‐∞ / Cmax / t1/2 / tmax: part 2 n = 14; for AUC0‐∞ / Cmax / t1/2: geometric mean (CVb%); for tmax: median (range)
# [4] = Clinical DDI study part 1: plasma PK of molibresib alone and with itraconazole; settings: with itraconazole vs alone, dose-normalized
# [5] = Safety and tolerability in the DDI study; settings: one subject, part 1, appeared on day 6
# [6] = human urine; ref study BET115521; cited from earlier work
# [7] = preclinical findings; cited from earlier work
# [8] = with rifampicin vs alone, part 2
smiles,measurement,setting,value
COc1ccc2c(c1)C(c1ccc(Cl)cc1)=N[C@@H](CC(N)=O)c1nnc(C)n1-2 [GSK3529246],Compound type,[1],Monoprotic base
same,Log P,[1],1.6
same,pKb,[1],7.36
same,Blood:plasma ratio,[2],0.9
same,Fu plasma,[2]; fraction unbound,0.2
same,increase in Cmax with rifampicin,[3]; part 2,2 fold
same,AUC0‐∞,[3]; molibresib 10 mg alone,622 (26) ng·h/mL
same,Cmax,[3]; molibresib 10 mg alone,49.0 (24) ng/mL
same,t1/2,[3]; molibresib 10 mg alone,10.0 (22) h
same,tmax,[3]; molibresib 10 mg alone,2.0 (1.0‐4.1) h
same,AUC0‐∞,[3]; molibresib 20 mg + rifampicin,1140 (26) ng·h/mL
same,Cmax,[3]; molibresib 20 mg + rifampicin,200 (24) ng/mL
same,t1/2,[3]; molibresib 20 mg + rifampicin,10.0 (24) h
same,tmax,[3]; molibresib 20 mg + rifampicin,1.0 (0.53‐1.5) h
same,"AUC0‐∞ Geometric Mean Ratio, Dosed Normalized (90%CI)",[3]; [8],0.917 (0.850‐0.989)
same,"Cmax Geometric Mean Ratio, Dosed Normalized (90%CI)",[3]; [8],2.04 (1.78‐2.32)
same,AUC Observed Geometric Mean Ratio (90%CI),[4]; AUC 0 to infinity,0.29 (0.26‐0.32)
same,Cmax Observed Geometric Mean Ratio (90%CI),[4],0.13 (0.11‐0.14)
CCC(C)n1ncn(-c2ccc(N3CCN(c4ccc(OCC5COC(Cn6cncn6)(c6ccc(Cl)cc6Cl)O5)cc4)CC3)cc2)c1=O (stereo not drawn) [itraconazole],adverse event considered related by the investigator,[5],mild elevations in liver enzymes
CCNC(=O)C[C@@H]1N=C(c2ccc(Cl)cc2)c2cc(OC)ccc2-n2c(C)nnc21 [Molibresib],urinary excretion of unchanged drug,[6],approximately 9.5 % of the total dose administered
same,preclinical adverse effects on male reproductive organs,[7],adverse effects on the testes including sperm retention and disorganized spermatogenesis
